Data: patent US20240228493A1, “LRRK2 INHIBITORS AND USES THEREOF” (NEURON23, ICN., priority 2022, published 2024)

How the values were obtained:
[1] = Brain penetration (Kp,uu) in CD-1 mice after single IV bolus, with plasma and brain binding by equilibrium dialysis; format: in vivo; conditions: mouse, brain and plasma (unbound brain/unbound plasma), male CD-1 mice, single IV bolus 1 mg/kg
Method: The compounds disclosed herein were tested on CD-1 mice for brain penetration (Kp, uu) according to the following procedures.
Nine male CD-1 mice were administered TEST COMPOUND by single intravenous bolus administration at 1 mg/kg. The vehicle used for IV study was 5% DMSO, 5% solutol, 20% PEG300 and 70% water. The detailed dosing and sampling regimens are described in the following tables.
The body weights were in the range from 28.81 to 31.25 g for males on the first dosing day. All animals received a single intravenous bolus administration of TEST COMPOUND from the tail vein.
Each blood collection (about 0.06 mL per time point) was performed from saphenous vein of each animal into pre-chilled commercial K2-EDTA tubes as anti-coagulant and placed on wet ice until centrifugation.
Brain tissue was homogenized using homogenizing buffer (15 mM PBS (pH7.4): MeOH=2:1) at the ratio of 1:9 (1 g tissue with 9 mL buffer, the dilution ratio is 10). The tissue homogenate was kept at −60° C. or lower until LC-MS/MS analysis.
The concentrations of TEST COMPOUND in plasma and brain were determined by using an LC-MS/MS method.
The plasma and brain concentration of TEST COMPOUND in study animals was subjected to a non-compartmental pharmacokinetic analysis by using the Phoenix WinNonlin software program (version 6.3 or above, Pharsight). The linear/log trapezoidal rule was applied in obtaining the PK parameters.
Mouse Kp, uu=(% free in mouse brain*concentration in mouse brain)/(% free in mouse plasma*concentration in mouse plasma)
(§1) The dialysis apparatus was assembled according to the manufacturer's instruction. Each Cell was filled with 120 μL of spiked plasma sample and dialyzed against equal volume of dialysis buffer (PBS). The assay was performed in duplicate. The dialysis plates were sealed and incubated in an incubator at 37° C. with 5% CO2 and rotated at 100 rpm for 6 hours. At the end of incubation, the seals were removed and 50 μL of samples from both buffer and plasma chambers were transferred to a 96-well plate.
as §1, with “with 150” for “with 120”, “of brain homogenate” for “of spiked plasma”, “and brain homogenate” for “and plasma”, “transferred into separate tubes on” for “transferred to”, “a” for “a 96-well”

[2] = target: T1, wt human LRRK2, catalytic site (Homo sapiens, UniProt Q5S007); assay: TR-FRET LanthaScreen Tb Kinase Activity Assay, LRRK2 inhibition; format: biochemical; conditions: 2 nM wt human LRRK2, 400 nM peptide, 38 μM ATP
T1 construct: wt human LRRK2, catalytic site, catalytic site (ThermoFisher/USA); purchased ThermoFisher
Procedure, shortened: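 Fluorescein-ERM (LRRKtide) peptide (400 nM) phosphorylated by 2 nM wt human LRRK2 catalytic site with 38 μM ATP in 1× Kinase Buffer A, 120 min at room temperature after 15 min compound–kinase preincubation. EDTA plus Tb-anti-pLRRKtide antibody added, read after 60 min; inhibition from TR-FRET emission ratios.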

Caco-2 cells = assay: Caco-2 bidirectional permeability; format: in vitro ADME; conditions: for Caco-2 ER: Efflux Ratio=Papp(BA)/Papp(AB); for Caco-2 A2B (10^−6 cm/s): apical to basolateral; for Caco-2 A2B (10^−6 cm/s) / Caco-2 B2A (10^−6 cm/s): 2 hours, pH 7.4; for Caco-2 B2A (10^−6 cm/s): basolateral to apical
Procedure, shortened: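 Caco-2 monolayers were grown 21–28 days on PET inserts and run in duplicate in HBSS with 10 mM HEPES, pH 7.4. Test compound was dosed bidirectionally at […] for 2 h at 37 °C; quantification was by LC-MS/MS. Papp and efflux ratio (B-A/A-B) were calculated, with lucifer yellow monolayer integrity checks.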

T1 sequence (Q5S007 1879-2138 limits assumed): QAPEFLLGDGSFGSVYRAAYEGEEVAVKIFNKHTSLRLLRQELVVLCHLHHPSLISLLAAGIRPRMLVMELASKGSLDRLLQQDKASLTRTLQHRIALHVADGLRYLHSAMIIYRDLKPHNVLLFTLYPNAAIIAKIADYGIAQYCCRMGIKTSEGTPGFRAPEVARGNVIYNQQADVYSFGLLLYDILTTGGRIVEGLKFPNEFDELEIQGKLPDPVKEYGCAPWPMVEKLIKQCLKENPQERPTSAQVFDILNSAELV

Kp uu [1]	IC50 [2] [nM]	Caco-2 ER (Caco-2 cells)	Caco-2 B2A (10^−6 cm/s) (Caco-2 cells)	Compound	Caco-2 A2B (10^−6 cm/s) (Caco-2 cells)
< 0.1	1 to 100	L (L (Likely)”: ER≥2.5)	H (H (High permeability)”: A2B (B2A)>5)	Cc1n[nH]c2c1N=C(c1c(F)cccc1F)Nc1c-2cc(N2CCC(C)(O)CC2)nc1C [Example 41, 1-(5-(2,6-difluorophenyl)-3,7-dimethyl-1,6-dihydropyrazolo[4,3-d]pyrido[4,3-f][1,3]diazepin-9-yl)-4-methylpiperidin-4-ol]	M (M (Moderate permeability)”: 1≤A2B (B2A)≤5)
< 0.1	< 1	L (L (Likely)”: ER≥2.5)	H (H (High permeability)”: A2B (B2A)>5)	Cn1cc(-c2cc3c(cn2)NC(c2c(F)cccc2F)=Nc2c(Cl)n[nH]c2-3)cn1 [Example 54, 3-chloro-5-(2,6-difluorophenyl)-9-(1-methyl-1H-pyrazol-4-yl)-1,6-dihydropyrazolo[4,3-d]pyrido[4,3-f][1,3]diazepine]	M (M (Moderate permeability)”: 1≤A2B (B2A)≤5)
